Holding throughout (test): NCI anticancer screen, dose series, 48 h
Assay [1] deals with SNB-19 CNS.
In assay [2] the test system is HL-60(TB) leukemia.
For assay [3], the system named is SN12C renal.
Assay [4] has as its system DU-145 prostate.
Assay [5] deals with SF-295 CNS.
The subject of assay [6] is HT29 colon.
Assay [7] relates to HOP-62 NSCLC.
Assay [8] concerns SNB-75 CNS.
Assay [9] has as its system NCI-H226 lung.
In assay [10] the test system is ACHN renal.
The subject of assay [11] is SF-539 CNS.
Assay [12] deals with TK-10 renal.
In assay [13] the test system is MDA-MB-231 breast.
Assay [14] has as its system A498 renal.
Assay [15] concerns HCT-15 colon.
For assay [16], the system named is OVCAR-4 ovarian.

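Exposure lasted 48 hours, with cells grown in 96-well plates and compounds tested at five concentrations. TGI: concentration producing complete growth inhibition.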

Turning to `Cc1nn(C(=O)Cc2ccccc2)c2c1C(c1ccc(O)cc1O)SC(N)=N2` (stereo not drawn), the TGI in assay [1], in [2], in assay [3], in assay [4], in assay [5] and in [6] was greater than 100 µM each time. Further, the TGI in assay [7], in assay [8], in assay [9], in [10], in assay [11] and in assay [12] was greater than 100 µM each time. Besides, the TGI in assay [13], in [14] and in [15] was greater than 100 µM each time.
Take `CC(=O)O[C@H]1[C@@H]2OC(=O)[C@@](O)(CC3CCCO3)[C@@H]2CC(=O)[C@](C)(O)CC/C=C(\C)CCC[C@@H]1C` (stereo partly drawn): the TGI was greater than 100 µM in [1]; 57.8 µM in assay [2]; greater than 100 µM in [16]; greater than 100 µM in [3]; greater than 100 µM in assay [4]; greater than 100 µM in assay [5]. The TGI in assay [8] was greater than 100 µM; in assay [9], 32.5 µM; in assay [10], greater than 100 µM; in [11], 36.7 µM; in assay [12] it was greater than 100 µM; in assay [13], 63 µM. Besides, the TGI in [14] and in assay [15] was greater than 100 µM throughout.
Turning to `COc1cc2c(cc1OC)C(=O)/C(=C/c1ccc(Cl)cc1)CC2`, the TGI in assay [1], in assay [2], in [16], in assay [3], in [4] and in assay [5] was greater than 10 µM each time. The TGI in assay [6], in assay [7], in assay [9], in assay [10], in assay [11] and in assay [12] was greater than 10 µM in each case. In addition, the TGI in assay [13], in assay [14] and in assay [15] was greater than 10 µM each time.
In the case of `O=C(NCCNCCCNC(=O)c1cc(-c2ccccc2)nc2ccccc12)c1cccc(O)c1O`, the TGI in [1] is 11.8 µM; in assay [2] it was greater than 100 µM; in assay [3] it was 52.6 µM; in assay [4], greater than 100 µM; in assay [5], 28.7 µM; in [6], 22.2 µM. The TGI in [7] was 15.9 µM; in [8] it was 60.9 µM; in assay [9] it was 36.3 µM; in [10] it was 20 µM; in assay [11] it was 11.6 µM; in assay [12], 64.4 µM. Further, the TGI is greater than 100 µM in assay [13], 55.9 µM in [14] and 26.8 µM in assay [15].
As for `O=C1CSC(c2ccc([N+](=O)[O-])cc2)N1c1ccc(-n2c(-c3ccccc3)nc3ccccc3c2=O)cc1` (stereo not drawn), the TGI in [1] is greater than 100 µM; in [2], greater than 100 µM; in [16], 95.7 µM; in assay [3], greater than 100 µM; in assay [4], greater than 100 µM; in assay [5], greater than 100 µM. Also, the TGI in [6], in assay [7], in assay [9], in [10], in assay [11] and in assay [12] was greater than 100 µM each time. The TGI in assay [13], in assay [14] and in [15] was greater than 100 µM each time.
On to `CCn1c(SCC(=O)NNC(=S)Nc2ccc([N+](=O)[O-])cc2)nc2ccccc2c1=O`, for which the TGI in [1], in [2], in [16], in [3], in assay [4] and in assay [5] was greater than 100 µM throughout. For the same molecule, the TGI in assay [7], in assay [8], in assay [9], in assay [10], in assay [11] and in assay [12] was greater than 100 µM throughout. The TGI in [13], in assay [14] and in assay [15] was greater than 100 µM in each case.
Take `N#CC(=C1CCN(CCCC(=O)c2ccc(F)cc2)CC1)c1ccccc1`: the TGI in assay [1], in assay [2], in assay [16], in assay [3], in assay [4] and in assay [5] was greater than 100 µM each time. Besides, the TGI in [6], in [8], in [9], in [10], in assay [11] and in assay [12] was greater than 100 µM in each case. Also, the TGI in assay [13], in assay [14] and in assay [15] was greater than 100 µM each time.
Consider `O=C(CCc1ccc(O)c(O)c1)NCCc1cc(O)cc(O)c1`, for which the TGI in [1], in assay [2], in assay [3], in assay [4], in assay [5] and in [6] was greater than 100 µM throughout. Also, the TGI in assay [7], in [8], in assay [9], in assay [10], in [11] and in [12] was greater than 100 µM in each case. Moreover, the TGI in assay [13], in assay [14] and in assay [15] was greater than 100 µM each time.
For the molecule `COC(=O)C1CN=CN1CCc1ccccc1` (stereo not drawn), the TGI in assay [1], in [2], in assay [16], in assay [4], in assay [5] and in assay [6] was greater than 100 µM in each case. The TGI in assay [8], in assay [9], in assay [10], in [11], in assay [12] and in assay [13] was greater than 100 µM throughout. Moreover, the TGI in assay [14] and in assay [15] was greater than 100 µM throughout.

These data come from PubChem BioAssay (NCI).
